Experimental data as given in patent publication US20180071280A1, “MODULATORS OF CELL DEATH PROCESSES” (URIFER LTD., priority 2015, published 2018).

What was measured:
Format in all cases: cell-based, human
SW620 CC cells = test: MultiTox-Fluor cytotoxicity assay in SW620 CC cells
Method: Cell lines (HCT116, ht29, Rko, Hep3B, SW48, SW620, MDA-MB-231, PANC-1, su.86.86, Hfb) were obtained from the American Type Culture Collection (ATCC). Cell type authentication was carried out by microscope and DNA profiles using short tandem repeat analysis. Cells were grown in Minimum Essential Medium (MEM) containing 10% heat-inactivated Fetal Bovine Serum (FBS) or in Dulbecco's Modified Eagle's Medium (DMEM) containing 10% FBS, where specified, at 37° C. with 5% CO2. In general, the in-vitro experiments were carried out with 2. μM 0260 added into the growth medium. Dose response experiments included increasing 0260 concentrations. Cell death levels were determined using the MultiTox-Fluor Multiplex Cytotoxicity Assay (G9201, Promega, USA). In brief, 10,000 cells were seeded in black bottom 96 wells plate and were allowed to attach to the plate bottom for 16 h before the administration of various 0260 concentration in each well. Cell death levels were determined according to the manufacturer's protocol.
Cells death level was determined using the MultiTox-Fluor Multiplex Cytotoxicity Assay (G9201, Promega, USA) according to the manufacturer's protocol.

CC cells = test: Autophagy in CC cells (TEM, LC3 immuno-staining, WB); conditions: co-treatment with 0260
Method: (§1) WB analyses were carried out as previously described before. In brief, cells were lysed in RIPA buffer mixed with protease inhibitors and separated on SDS-PAGE gel, transferred to PVDF membrane treated with 5% skim milk to exclude non-specific background and incubated with a primary antibody over-night. The membrane was incubated for 1 h with a secondary antibody conjugated to Horseradish Peroxidase (HRP). The protein-antibody complex was visualized using the SuperSignal West Pico Chemiluminescent Substrate (Thermo scientific, USA).
Cells were fixed with 4% paraformaldehyde (30 min) and incubated with Permeabilization Solution containing 0.1% Triton X-100 (Sigma-Aldrich, Israel) in PBS at room temperature for 1 h. Nonspecific binding was blocked with PBS containing 10% fetal bovine serum for 1 h at room temperature. Cells were incubated with specific antibodies diluted 1:100 overnight at 4° C. Cells were washed (5 min) in PBS containing 0.2% Tween-20 (Sigma-Aldrich, Israel) to remove non-specific binding. Bound primary antibodies were detected by Alexa Fluor® 488 goat anti-mouse IgG antibody or Alexa Fluor® 594 goat anti-rabbit IgG antibody (Molecular Probes, Invitrogen, U.K.). Nuclei were visualized by incubation with Hoechst 33342 solution for 10 min (1:500). Nonspecific staining, as determined by binding to the secondary antibody only, was negligible. The immunostained slides were examined under the fluorescence microscope AxioimagerZ1 (Zeiss, Germany) or confocal fluorescence microscope (Olympus-FV1000).
Cells were grown in MEM or DMEM, washed twice with PBS and fixed for 5 minutes in Karnovsky fixative (2.5% glutaraldehyde, 2.5% paraformaldehyde in cacodylate buffer pH 7.4) on the tissue culture plate. Cells were then harvested, and transferred to 1.5 ml tube for further 1 h fixation at room temperature. The cells were then stored O.N at 4C° after which the samples were washed in 0.1 M cacodylate buffer and post-fixed with 1% OsO4 in 0.1 M sodium cacodylate buffer (Sigma-Aldrich, Israel) for 1 h. […]

PARP-1 = PARP-1 poly-ADP-ribosylation activity in CC cells (WB); conditions: co-treatment with 0260
Method: as §1

[1] = system: malignant cells (CC and MDA cells); test: Cellular ATP level (HPLC) in malignant cells; conditions: SW620, co-treatment with 0260
Method: Quantification of intracellular ATP was carried out using HPLC as previously described.
Cells were suspended in 400 μl cold 0.4M perchloric acid solution, incubated on ice for 15 min, centrifuged at 12,000×g, neutralized with 4M K2CO3 to pH 7.5, incubated for 15 min on ice and concentrated (10,000×g). Chromatographic analyses were performed using Hitachi Elite LaChrom system at 30° C. applying supernatants to SUPELCOSIL™ LC-18-S HPLC Column (5 μm particle size, L×I.D. 25 cm×2.1 mm), flow rate 0.2 mL/min under isocratic elution conditions (50 mM potassium phosphate, 100 mM triethylamine, pH 6.5 (adjusted with phosphoric acid)):Acetonitrile (98.5:1.5)). Each analysis cycle was set to 30 min, chromatographic flow was monitored at 260 nm and integrated using EZChrom Elite Software.

Compound	decrease of 0260-induced death (SW620 CC cells; CC cells, co-treatment with 0260)	induced autophagy with PARP-1 inhibition (LC3II to LC3 I ratio) (CC cells)	0260-induced poly-ADP-ribosylation activity with PARP-1 inhibitor (PARP-1)	death levels of 0260 treated cells with autophagy inhibitor (SW620 CC cells; SW620, co-treatment with 0260)	ATP level in 0260 treated cells with autophagy inhibitor [1]
NC(=O)c1cccc(N)c1 [3AB, 3-Aminobenzamide, reference compound]	50%	decreased LC3II to LC3 I ratio	abolished	–	–
Cn1cnc(N)c2ncnc1-2 [3-MA, 3-Methyladenine, reference compound]	–	–	–	reduced death levels	almost completely restored the ATP level
